Our source for the IC50, toxic side effects and melting point values is patent US8697868B2, “8-[3-amino-piperidin-1-yl]-xanthines, their preparation and their use as pharmaceutical compositions” (Boehringer Ingelheim International GmbH, priority 2004, dated 2014).

Structures are written as SMILES.

The target in one data set is DPP-IV (Homo sapiens (Human), UniProt P27487). In words: DPP-IV assay with Caco-2 cell extract as DPP IV source. In kind it is biochemical. The settings on record: extract of human colon carcinoma cell line Caco-2 as DPP IV source; AFC substrate 100 μM; 60 minutes at ambient temperature; read-out: DPP IV inhibition IC50. As to the method: The differentiation of the cells in order to induce the DPP-IV expression was carried out in accordance with the description by Reiher et al. in an article entitled “Increased expression of intestinal cell line Caco-2” that appeared in Proc. Natl. Acad. Sci. Vol. 90, pp. 5757-5761 (1993). The cell extract was obtained from cells solubilized in a buffer (10 mM Tris HCl, 0.15 M NaCl, 0.04 t.i.u. aprotinin, 0.5% Nonidet-P40, pH 8.0) by centrifugation at 35,000 g for 30 minutes at 4° C. (to remove cell debris).
The DPP-IV assay was carried out as follows:
50 μl of substrate solution (AFC; AFC is amido-4-trifluoromethylcoumarin), final concentration 100 μM, was placed in black microtitre plates. 20 μl of assay buffer (final concentrations 50 mM Tris HCl pH 7.8, 50 mM NaCl, 1% DMSO) was pipetted therein. The reaction was started by the addition of 30 μl of solubilized Caco-2 protein (final concentration 0.14 μg of protein per well). The test substances under investigation were typically added prediluted to 20 μl, while the volume of assay buffer was then reduced accordingly. The reaction was carried out at ambient temperature, the incubation period was 60 minutes. Then the fluorescence was measured in a Victor 1420 Multilabel Counter, with the excitation wavelength at 405 nm and the emission wavelength at 535 nm. Dummy values (corresponding to 0% activity) were obtained in mixtures with no Caco-2 protein (volume replaced by assay buffer), control values (corresponding to 100% activity) were obtained in mixtures without any added substance. The potency of the test substances in question, expressed as IC50 values, were calculated from dosage/activity curves consisting of 11 measured points in each case.

Another data set concerns rats. In words: Tolerability after oral administration in rats. Type of data set: in vivo. The settings on record: oral administration of 10 mg/kg.

DPP-IV, sequence (P27487 whole entry): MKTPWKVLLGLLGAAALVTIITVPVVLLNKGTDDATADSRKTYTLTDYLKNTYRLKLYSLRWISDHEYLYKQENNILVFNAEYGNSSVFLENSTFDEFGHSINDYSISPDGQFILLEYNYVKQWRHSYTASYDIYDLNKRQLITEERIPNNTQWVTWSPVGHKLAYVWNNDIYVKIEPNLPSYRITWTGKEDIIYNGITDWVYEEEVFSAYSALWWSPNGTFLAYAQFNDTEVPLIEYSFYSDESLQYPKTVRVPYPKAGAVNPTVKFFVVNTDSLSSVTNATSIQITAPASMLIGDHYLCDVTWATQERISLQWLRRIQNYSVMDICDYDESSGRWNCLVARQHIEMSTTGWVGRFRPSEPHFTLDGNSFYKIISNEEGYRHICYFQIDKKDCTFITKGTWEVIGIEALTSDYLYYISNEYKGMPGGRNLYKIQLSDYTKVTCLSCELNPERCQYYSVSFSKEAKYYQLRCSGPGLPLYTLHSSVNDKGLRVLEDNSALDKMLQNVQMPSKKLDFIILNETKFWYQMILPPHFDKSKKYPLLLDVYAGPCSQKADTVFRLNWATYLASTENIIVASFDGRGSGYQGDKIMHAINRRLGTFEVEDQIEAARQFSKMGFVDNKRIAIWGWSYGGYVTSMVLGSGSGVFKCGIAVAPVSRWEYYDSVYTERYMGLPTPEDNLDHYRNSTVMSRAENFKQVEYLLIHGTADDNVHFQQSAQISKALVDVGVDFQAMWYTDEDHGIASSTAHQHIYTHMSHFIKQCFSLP

One may read the IC50 as the concentration that gives 50% inhibition. Turning to `CC#CCn1c(N2CCC[C@@H](N)C2)nc2c1c(=O)n(Cc1cc(C#N)cc3ccccc13)c(=O)n2C` [1(3), 1-[(3-cyano-naphthalen-1-yl)methyl]-3-methyl-7-(2-butyn-1-yl)-8-((R)-3-amino-piperidin-1-yl)-xanthine], at DPP-IV, the IC50 is 6 nM.
The same measure, in the same setting: in the case of `CC#CCn1c(N2CCC[C@@H](N)C2)nc2c1c(=O)n(Cc1nc(-c3ccccc3)nc3ccccc13)c(=O)n2C` [1(4), 1-[(2-phenyl-quinazolin-4-yl)methyl]-3-methyl-7-(2-butyn-1-yl)-8-((R)-3-amino-piperidin-1-yl)-xanthine] it was 9 nM; in that of `CC#CCn1c(N2CCC[C@@H](N)C2)nc2c1c(=O)n(Cc1cc(C#N)c3ccccc3n1)c(=O)n2C` [1(6), 1-[(4-cyano-quinolin-2-yl)methyl]-3-methyl-7-(2-butyn-1-yl)-8-((R)-3-amino-piperidin-1-yl)-xanthine], 2 nM.
On the same count and under the same terms, the result for `CC#CCn1c(N2CCC[C@@H](N)C2)nc2c1c(=O)n(CC(=O)c1cccc(OC3CC3)c1)c(=O)n2C` [1(7), 1-[2-(3-cyclopropyloxy-phenyl)-2-oxo-ethyl]-3-methyl-7-(2-butyn-1-yl)-8-((R)-3-amino-piperidin-1-yl)-xanthine] reads 5 nM; that for `CC#CCn1c(N2CCC[C@@H](N)C2)nc2c1c(=O)n(Cc1ccc3nc(C)c(C)nc3c1)c(=O)n2C` [1(12), 1-[(2,3-dimethyl-quinoxalin-6-yl)methyl]-3-methyl-7-(2-butyn-1-yl)-8-((R)-3-amino-piperidin-1-yl)-xanthine], 2 nM.
As to `CC#CCn1c(N2CCC[C@@H](N)C2)nc2c1c(=O)n(CC(=O)c1ccccc1-c1cccnc1)c(=O)n2C` [1(21), 1-{2-oxo-2-[2-(pyridin-3-yl)-phenyl]-ethyl}-3-methyl-7-(2-butyn-1-yl)-8-((R)-3-amino-piperidin-1-yl)-xanthine], the IC50 on DPP-IV was determined as 2 nM.
Still for that read-out and setting: the result for `CC#CCn1c(N2CCC[C@@H](N)C2)nc2c1c(=O)n(Cc1cnc3cccnc3c1)c(=O)n2C` [1(26), 1-[([1,5]naphthyridin-3-yl)methyl]-3-methyl-7-(2-butyn-1-yl)-8-((R)-3-amino-piperidin-1-yl)-xanthine] reads 2 nM.
Same read-out and setting: the result for `CC#CCn1c(N2CCC[C@@H](N)C2)nc2c1c(=O)n(Cc1nccc(-c3ccccc3)n1)c(=O)n2C` [1(31), 1-[(4-phenyl-pyrimidin-2-yl)methyl]-3-methyl-7-(2-butyn-1-yl)-8-((R)-3-amino-piperidin-1-yl)-xanthine] reads 3 nM; that for `CC#CCn1c(N2CCC[C@@H](N)C2)nc2c1c(=O)n(Cc1ccc3cncnc3c1)c(=O)n2C` [1(38), 1-[(quinazolin-7-yl)methyl]-3-methyl-7-(2-butyn-1-yl)-8-((R)-3-amino-piperidin-1-yl)-xanthine], 1 nM; that for `CC#CCn1c(N2CCC[C@@H](N)C2)nc2c1c(=O)n(Cc1ccccc1C#N)c(=O)n2C` [1(39), 1-(2-cyano-benzyl)-3-methyl-7-(2-butyn-1-yl)-8-((R)-3-amino-piperidin-1-yl)-xanthine], 2 nM.
Regarding `CC#CCn1c(N2CCC[C@@H](N)C2)nc2c1c(=O)n(Cc1nc3ccccc3cc1C#N)c(=O)n2C` [Example 1(30), 1-[(3-cyano-quinolin-2-yl)methyl]-3-methyl-7-(2-butyn-1-yl)-8-((R)-3-amino-piperidin-1-yl)-xanthine], the toxic side effects entry in the data set on rats was “no toxic side effects could be detected”. Besides, at DPP-IV, the IC50 amounted to 2 nM.
In general, melting point refers to the temperature, or range, at which the solid turns liquid. The molecule `CC#CCn1c(N2CCC[C@@H](N)C2)nc2c1c(=O)n(Cc1ccccc1)c(=O)n2C` [Example 1(43), 1-benzyl-3-methyl-7-(2-butyn-1-yl)-8-((R)-3-amino-piperidin-1-yl)-xanthine] came in with a melting point of 207 to 209 °C.
The same measure, in the same setting: in the case of `CC#CCn1c(N2CCC[C@@H](N)C2)nc2c1c(=O)n(Cc1nc(C)cc(C)n1)c(=O)n2C` [Example 1(82), 1-[(4,6-dimethyl-pyrimidin-2-yl)methyl]-3-methyl-7-(2-butyn-1-yl)-8-((R)-3-amino-piperidin-1-yl)-xanthine] it was 202 to 204 °C; in that of `CC#CCn1c(N2CCC[C@@H](N)C2)nc2c1c(=O)n(Cc1cnccc1C#N)c(=O)n2C` [Example 1(102), 1-[(4-cyano-pyridin-3-yl)methyl]-3-methyl-7-(2-butyn-1-yl)-8-((R)-3-amino-piperidin-1-yl)-xanthine], 166 °C.
As to `CC#CCn1c(N2CCCC(N)C2)nc2c1c(=O)n(Cc1nc(Nc3ccccc3)c3ccccc3n1)c(=O)n2C` (stereo not shown) [Example 1, 1-[(4-phenylamino-quinazolin-2-yl)methyl]-3-methyl-7-(2-butyn-1-yl)-8-(3-amino-piperidin-1-yl)-xanthine], on DPP-IV, the IC50 was 6 nM.
